Literature values, collected in PMC6510909 (Investigational New Drugs, 2018).
Where two headings read alike, the source gives them in different places.

Columns and labels:
[1] = tested on: patients with advanced/metastatic pancreatic cancer; design: method as in earlier work; conditions: JANUS-1 interim analysis; P = 0.409; cited from earlier work
[2] = tested on: patients with advanced/metastatic pancreatic cancer; design: method as in earlier work; conditions: JANUS-2 interim analysis; P = 0.942; cited from earlier work
[3] = tested on: patients with metastatic pancreatic cancer that was refractory to gemcitabine; design: method as in PMID 26351344; conditions: with capecitabine, cited from earlier work
[4] = tested on: pancreatic cancer; conditions: nab-P + G group, MPACT trial; cited from earlier work

| Molecule | HR for OS, ruxolitinib vs placebo [1] | HR for OS, ruxolitinib vs placebo [2] | HR for OS, ruxolitinib vs placebo ([3]; overall study population, P = 0.25) | HR for OS, ruxolitinib vs placebo ([3]; subgroup with C-reactive peptide >13 mg/L, P = 0.011) | Median OS [4] [months] |
| --- | --- | --- | --- | --- | --- |
| N#CC[C@H](C1CCCC1)n1cc(-c2ncnc3[nH]ccc23)cn1 [ruxolitinib] | 0.969 [95% CI, 0.75–1.26] | 1.584 [95% CI, 0.89–2.83] | 0.79 [95% CI, 0.53–1.18] | 0.47 [95% CI, 0.26–0.85] | – |
| albumin-bound paclitaxel + gemcitabine [nab-P + G] | – | – | – | – | 8.5 |
